In article PMC8346996, “Antiradical Properties of N-Oxide Surfactants—Two in One” (International Journal of Molecular Sciences, 2021):
Converted amounts (≈) assume the structure as drawn. Read-outs that look alike come from different tables or passages of the source. Marks after values point to notes of the source that are not given here.

What was measured:
[1] = DPPH• scavenging kinetics by UV-vis, pseudo-first-order conditions; conditions: for second-order rate constant k2 for the reaction with DPPH•: ethanol, 298 K, deaerated, DPPH• 2.2 × 10^−4 M, surfactant 0.012-0.12 M; for k2 higher in comparison with the CnPDA homolog: reaction with DPPH•
Method: After confirming that the absorption maximum at 517 nm of DPPH• is outside the surfactant’s absorption range, the rate of the DPPH•-scavenging reaction of the N-oxides was measured by monitoring the decrease in absorbance of this maximum. To ensure that the decay of DPPH• obeyed pseudo-first-order kinetics, the concentration of surfactants was at least a 54-fold excess of the DPPH• concentration. As explained in SI, the calculated pseudo-first-order rate constants, kobs, increased linearly with the concentration of Cn(DAPANO)2 and CnPDA (shown in SI). The second-order rate constants k2 for the reaction between the N-oxides and DPPH• were determined from the slopes of the linear plots of kobs vs. the concentration of the surfactants and are given in Figure 6.
The measurements were done under deaerated conditions at 298 K in ethanol solutions (2 mL in a 10 mm quartz cuvette) containing DPPH^• (C = 2.2 × 10^−4 M) and a surfactant at each of five different concentrations, namely C1 = 0.12 M, C2 = 0.09 M, C3 = 0.06 M, C4 = 0.03 M, and C5 = 0.012 M. UV−vis spectral changes associated with the undergoing reaction were monitored at 516 nm, using a Varian Cary 50Conc UV−visible Spectrophotometer. The following equations of the calibration curve were used to calculate DPPH^• concentrations in the reaction system: Abs = 4.0189 × C[mM] + 0.00813 (R^2 = 0.9998). The rate of DPPH^• scavenging reaction was determined using pseudo-first-order kinetics (the concentration of CnPDA or Cn(DAPANO)2 was maintained at more than 54-fold excess of the radical concentration); further details are given as Supporting Information.

[2] = design: method as in PMID 23098238; conditions: cited from earlier work
[3] = MTT cell viability assay, HaCaT; assay type: cell-based, human; conditions: human, HaCaT cells (immortalized human keratinocytes), evaluated for CMC
Method: (§1) HaCaT (immortalized human keratinocytes from histologically normal skin) cell line was obtained from the CLS Cell Lines Service GmbH (Eppelheim, Germany). HGFs (human gingival fibroblasts) derive from primary cell culture. The cells were isolated according to the procedure described by Saczko et al. and patented by Saczko et al.. Cells were grown in plastic cell culture flasks in Dulbecco’s Modified Eagle’s Medium, supplemented with fetal bovine serum (FBS, Lonza, Morrisville, NC, USA), with 100 IU/mL penicillin, 50 mg streptomycin, and 125 μg amphotericin B (Sigma). The cells were maintained in a humidified atmosphere at 37 °C and 5% CO2. The cells were regularly maintained by systematic passaging. For experimental purposes, the cells were removed by trypsinization (0.25% Trypsin-EDTA, Sigma).
(§2) MTT (Sigma) test was used to determine the viability of HaCaT and HGFs cells. The MTT assay was used to test mitochondrial metabolic functioning. Cells were seeded on flat bottom 96-well tissue culture plates at a density of 10^4 cells/well and allowed to grow in a CO2 incubator at 37 °C overnight. In the case of these studies, the culture medium was removed, surfactant solutions were added, and the cells were exposed for 24 and 48 h to compounds at doses ranging from 50 to 2000 μg/mL. After incubation, MTT assay was applied according to the manufacturer protocol. The absorbance was measured at 570 nm using a multiwell plate reader (EnSpire Multimode Reader, Perkin Elmer). Each experiment was performed in a few independent repetitions. Mean values and standard deviations of all results were calculated. The final results were expressed as the percentage of mitochondrial function relative to untreated control cells.

[4] = test system: normal human keratinocytes (HaCaT); test: MTT cell viability assay, HaCaT; assay type: cell-based; conditions: Homo sapiens, HaCaT, MTT
Method: as §1, §2

[5] = test system: primary fibroblasts (HGFs); test: MTT cell viability assay, HGFs; assay type: cell-based, human; conditions: Homo sapiens, Fibroblast, MTT
Method: as §1, §2

[6] = MTT cell viability assay, HGFs; assay type: cell-based, human; conditions: human, primary human gingival fibroblasts (HGFs), evaluated for CMC; for viability at 24 h: read-out: Viability 24 h HGF’s; for viability at 48 h: read-out: Viability 48 h HGF’s
Method: as §1, §2

[7] = design: method as in PMID 23098238; conditions: cited from earlier work; remark: listed apart in the source
[8] = Hydrodynamic radius of micelles by dynamic light scattering (DLS); assay type: physicochemical; conditions: 298 K, surfactant at 100 x CMC
Method: The hydrodynamic diameter for CnPDA was determined by the DLS method. The measurements were performed using a Nano Series Zetasizer from Malvern Instruments (UK) with a detection angle of 173°, equipped with a He−Ne laser (632.8 nm) and an ALV 5000 multibit multitau autocorrelator. Before the measurements, the samples were filtered through a filter (with a pore size of 0.2 μm) directly into the optical cell to remove any impurities. All of the DLS measurements were performed at 298 ± 0.1 K and at a surfactant concentration a hundred times higher than the critical micelle concentration (CMC). Each value was obtained as the average of three runs with at least 10 measurements. The DTS software (Nano) was used to evaluate the data.

[9] = Radical scavenging monitored by EPR spectroscopy, GO•; conditions: after 60 min of reaction; C/CMC = 100
Method: (§3) We began with an attempt to determine if the N-oxide surfactants can participate in the radical scavenging process when micelles are well-formed. Thus, the reaction mixtures containing a surfactant at C/CMC = 100, which is a typical concentration found in formulations, and GO• or DPPH• at 2 mM were prepared along with the control samples and monitored over time (solutions of DPPH• and GO• without surfactants).
(§4) The scavenging capacity of the surfactants was judged quantitatively by measuring the percentage of remaining GO• and DPPH• after a fixed reaction time. The relative concentration of GO• and DPPH• was calculated from Equation (1):(1) remaining radical%=It/I0×100% where I0 and It correspond to the EPR signal integral intensity of a radical in the absence and presence of the N-oxide surfactants after a fixed time, respectively.
(§5) The antiradical properties were studied by EPR using a Bruker ELEXYS E500 spectrometer equipped with an NMR gaussmeter and frequency counter. A microwave power of 10 mW, a modulation frequency of 100 kHz, a modulation amplitude of 1 G, a time constant of 82 ms, and a conversion time of 164 ms were adopted. The antiradical properties were evaluated against two model radicals: 2,2-diphenyl-1-picrylhydrazyl (DPPH•) and galvinoxyl (GO•). […]

[10] = Radical scavenging monitored by EPR spectroscopy, DPPH•; conditions: after 60 min of reaction; C/CMC = 100
Method: as §3, §4, §5

primary fibroblasts = test: ROS evaluation (DCF assay), primary fibroblasts; assay type: cell-based, human; conditions: after ROS induction by DHTTP; surfactant in CMC concentration
Method: (§6) Antioxidative properties of the tested surfactant were evaluated. To induce ROS production, a DPPH solution was prepared (C = 2.55 × 10^−3 mol/dm3). Normal fibroblasts and keratinocytes were seeded on flat bottom 96-well tissue culture plates at a density of 10^4 cells/well and allowed to grow in a CO2 incubator at 37°C overnight. Then, culture medium was removed and 200 µL of DPPH solution in DMEM was added to the plate and left for 1 h in a CO2 incubator at 37 °C. After incubation, DPPH solution was removed and ROS production was determined using DCF assay (Life Technologies, Warsaw, Poland). The DCF assay was conducted with 6-carboxy-2′,7′-dichlorodihydrofluorescein diacetate 2′,7′-dichlorofluorescein (carboxy-H2DCFDA). After deacetylation of H2DCFDA to H2DCF or carboxy-H2DCFDA to carboxy-H2DCF, cellular ROS oxidize H2DCF and carboxy-H2DCF to 2′,7′-dichlorofluorescein (DCF) and 2′,7′-carboxydichlorofluorescein (carboxy-DCF), respectively. The carboxy-H2DCFDA was dissolved in sterile DMSO to generate a stock solution of 50 µg/mL. For experiments, the stock solution of carboxy-H2DCFDA was brought to room temperature in the dark and then diluted in a cell culture medium without FBS. After washout of the incubation medium from cells with PBS, the reagent was added to cell culture to a final concentration of 10 µM and for 30 min was incubated at 37 °C in darkness. After incubation, excitation wavelength of 495 nm and emission wavelength of 530 nm were used by a multiwell scanning spectrophotometer (EnSpire Perkin Elmer, Krakow, Poland). In the next stage, surfactant solutions in CMC concentrations were added into cells after 1 h incubation with DHTTP solution. Cells were incubated, and ROS were detected 30 min by a multiwell scanning spectrophotometer (EnSpire Perkin Elmer, Poland).

human keratinocytes = test: ROS evaluation (DCF assay), human keratinocytes; assay type: cell-based; conditions: after ROS induction by DHTTP; surfactant in CMC concentration
Method: as §6

[11] = 24 h incubation, read-out: IC50 HaCaT 24 h
[12] = 48 h incubation, read-out: IC50 HaCaT 48 h
[13] = 24 h incubation, read-out: IC50 HGFs 24 h
[14] = 48 h incubation, read-out: IC50 HGFs 48 h

CCCCCCCCCC(=O)N(CCC[N+](C)(C)[O-])CCC[N+](C)(C)[O-] [C10(DAPANO)2]
second-order rate constant k2 for the reaction with DPPH• [1]: 0.000947 M⁻¹ s⁻¹
k2 higher in comparison with the CnPDA homolog [1]: 11%
CMC [2]: 3.0·10^−2 a M
viability at 24 h [3]: 8.1%
viability at 48 h [3]: 18.2%
IC50 [4, 11]: 98 µg/mL (≈ 262 µM)
IC50 [4, 12]: 97 µg/mL (≈ 260 µM)
IC50 [5, 13]: 34.5 µg/mL (≈ 92.3 µM)
IC50 [5, 14]: 1.9 µg/mL (≈ 5.09 µM)
viability at 24 h [6]: 16.2%
viability at 48 h [6]: 9.7%
RH DLS [7]: 1.75 ^a nm

CCCCCCCCCC(=O)NCCC[N+](C)(C)[O-] [C10PDA]
second-order rate constant k2 for the reaction with DPPH• [1]: 0.000853 M⁻¹ s⁻¹
viability at 24 h [3]: 34.7%
viability at 48 h [3]: 84.8%
IC50 [4, 11]: 43.8 µg/mL (≈ 161 µM)
IC50 [4, 12]: 41.5 µg/mL (≈ 152 µM)
IC50 [5, 13]: 77.9 µg/mL (≈ 286 µM)
IC50 [5, 14]: 38.7 µg/mL (≈ 142 µM)
viability at 24 h [6]: 98.6%
viability at 48 h [6]: 20.2%
RH DLS [8]: 1.67 nm

CCCCCCCCCCCC(=O)NCCC[N+](C)(C)[O-] [C12PDA]
reduced the number of GO• by [9]: 59%
second-order rate constant k2 for the reaction with DPPH• [1]: 0.000905 M⁻¹ s⁻¹
viability at 24 h [3]: 89.4%
viability at 48 h [3]: 116%
IC50 [4, 11]: 31 µg/mL (≈ 103 µM)
IC50 [4, 12]: 18.8 µg/mL (≈ 62.6 µM)
IC50 [5, 13]: 51.9 µg/mL (≈ 173 µM)
IC50 [5, 14]: 49.8 µg/mL (≈ 166 µM)
viability at 24 h [6]: 55.5%
viability at 48 h [6]: 44.8%
reduced the number of DPPH• by [10]: 24%
RH DLS [8]: 1.96 nm

CCCCCCCCCCCCCC(=O)N(CCC[N+](C)(C)[O-])CCC[N+](C)(C)[O-] [C14(DAPANO)2]
second-order rate constant k2 for the reaction with DPPH• [1]: 0.00117 M⁻¹ s⁻¹
k2 higher in comparison with the CnPDA homolog [1]: 16%
radical (ROS) level, DCF fluorescence (primary fibroblasts): not significant decrease in radical level
CMC [2]: 8.0·10^−4 a M
viability at 24 h [3]: 11.3%
viability at 48 h [3]: 4.5%
IC50 [4, 11]: 32 µg/mL (≈ 74.5 µM)
IC50 [4, 12]: 17 µg/mL (≈ 39.6 µM)
IC50 [5, 13]: 68.5 µg/mL (≈ 159 µM)
IC50 [5, 14]: 0.89 µg/mL (≈ 2.07 µM)
viability at 24 h [6]: 17.7%
viability at 48 h [6]: 11.5%
radical (ROS) level, DCF fluorescence (human keratinocytes): not significant decrease in radical level
RH DLS [7]: 2.28 ^a nm

CCCCCCCCCCCCCC(=O)NCCC[N+](C)(C)[O-] [C14PDA]
second-order rate constant k2 for the reaction with DPPH• [1]: 0.00101 M⁻¹ s⁻¹
radical (ROS) level, DCF fluorescence (primary fibroblasts): most significant decrease of fluorescence level
viability at 24 h [3]: 81.1%
viability at 48 h [3]: 119%
IC50 [4, 11]: 48.1 µg/mL (≈ 146 µM)
IC50 [4, 12]: 9.9 µg/mL (≈ 30.1 µM)
IC50 [5, 13]: 69.9 µg/mL (≈ 213 µM)
IC50 [5, 14]: 1.6 µg/mL (≈ 4.87 µM)
viability at 24 h [6]: 104%
viability at 48 h [6]: 78.2%
radical (ROS) level, DCF fluorescence (human keratinocytes): most significant decrease of fluorescence level
RH DLS [8]: 2.19 nm

CCCCCCCCCCCCCCCC(=O)N(CCC[N+](C)(C)[O-])CCC[N+](C)(C)[O-] [C16(DAPANO)2]
second-order rate constant k2 for the reaction with DPPH• [1]: 0.00138 M⁻¹ s⁻¹
k2 higher in comparison with the CnPDA homolog [1]: 10%
radical (ROS) level, DCF fluorescence (primary fibroblasts): not significant decrease in radical level
CMC [2]: 1.5·10^−4 a M
viability at 24 h [3]: 14.7%
viability at 48 h [3]: 3.9%
IC50 [4, 11]: 29 µg/mL (≈ 63.4 µM)
IC50 [4, 12]: 18.2 µg/mL (≈ 39.8 µM)
IC50 [5, 13]: 14.3 µg/mL (≈ 31.2 µM)
IC50 [5, 14]: 0.76 µg/mL (≈ 1.66 µM)
viability at 24 h [6]: 27.8%
viability at 48 h [6]: 12.3%
radical (ROS) level, DCF fluorescence (human keratinocytes): not significant decrease in radical level
RH DLS [7]: 2.38 ^a nm

CCCCCCCCCCCCCCCC(=O)NCCC[N+](C)(C)[O-] [C16PDA]
second-order rate constant k2 for the reaction with DPPH• [1]: 0.00125 M⁻¹ s⁻¹
viability at 24 h [3]: 140%
viability at 48 h [3]: 123%
IC50 [4, 11]: 48.1 µg/mL (≈ 135 µM)
IC50 [4, 12]: 9.8 µg/mL (≈ 27.5 µM)
IC50 [5, 13]: 44.1 µg/mL (≈ 124 µM)
IC50 [5, 14]: 1.9 µg/mL (≈ 5.33 µM)
viability at 24 h [6]: 96.9%
viability at 48 h [6]: 81.7%
RH DLS [8]: 2.27 nm
